Test results: article PMC9221411, “Molecular Detection of Venous Thrombosis in Mouse Models Using SPECT/CT” (Biomolecules, 2022)

Target: T1, human thrombi (Homo sapiens, UniProt P02671+P02675+P02679)
T1 construct: Human plasma was allowed to clot for 90 min at 37 °C; from tissue; host or cells: citrated plasma of healthy human volunteers, clotted with CaCl2 and tissue factor
T1 sequence (P02671 36-629 limits assumed): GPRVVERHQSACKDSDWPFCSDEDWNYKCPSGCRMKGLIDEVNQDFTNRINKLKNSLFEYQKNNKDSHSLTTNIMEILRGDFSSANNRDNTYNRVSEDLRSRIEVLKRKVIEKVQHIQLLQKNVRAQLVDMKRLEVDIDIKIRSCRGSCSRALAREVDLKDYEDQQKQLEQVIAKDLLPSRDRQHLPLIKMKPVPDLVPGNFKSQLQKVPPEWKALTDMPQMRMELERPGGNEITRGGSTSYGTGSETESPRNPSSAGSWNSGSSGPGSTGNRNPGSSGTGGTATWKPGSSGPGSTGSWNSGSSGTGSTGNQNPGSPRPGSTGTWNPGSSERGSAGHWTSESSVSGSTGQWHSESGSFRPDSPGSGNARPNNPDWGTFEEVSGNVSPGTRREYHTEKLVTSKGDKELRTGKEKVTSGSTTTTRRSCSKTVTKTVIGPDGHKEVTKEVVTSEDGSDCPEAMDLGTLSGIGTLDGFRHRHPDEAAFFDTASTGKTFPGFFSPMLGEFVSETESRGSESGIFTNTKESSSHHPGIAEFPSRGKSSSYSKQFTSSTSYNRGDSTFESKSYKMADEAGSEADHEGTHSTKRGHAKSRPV
T1 sequence (P02675 45-491 limits assumed): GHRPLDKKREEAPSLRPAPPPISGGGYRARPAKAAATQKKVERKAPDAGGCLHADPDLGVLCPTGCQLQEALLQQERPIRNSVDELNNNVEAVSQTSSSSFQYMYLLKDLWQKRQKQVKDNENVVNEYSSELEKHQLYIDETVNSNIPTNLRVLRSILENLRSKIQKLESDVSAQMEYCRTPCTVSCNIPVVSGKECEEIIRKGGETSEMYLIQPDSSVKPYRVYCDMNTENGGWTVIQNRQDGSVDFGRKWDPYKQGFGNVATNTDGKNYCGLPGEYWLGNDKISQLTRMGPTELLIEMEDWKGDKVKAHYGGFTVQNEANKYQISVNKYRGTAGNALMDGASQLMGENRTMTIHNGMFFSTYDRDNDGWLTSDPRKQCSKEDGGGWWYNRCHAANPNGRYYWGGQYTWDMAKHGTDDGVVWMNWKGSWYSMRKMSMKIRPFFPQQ
T1 sequence (P02679 27-437 isoform P02679-2 limits assumed): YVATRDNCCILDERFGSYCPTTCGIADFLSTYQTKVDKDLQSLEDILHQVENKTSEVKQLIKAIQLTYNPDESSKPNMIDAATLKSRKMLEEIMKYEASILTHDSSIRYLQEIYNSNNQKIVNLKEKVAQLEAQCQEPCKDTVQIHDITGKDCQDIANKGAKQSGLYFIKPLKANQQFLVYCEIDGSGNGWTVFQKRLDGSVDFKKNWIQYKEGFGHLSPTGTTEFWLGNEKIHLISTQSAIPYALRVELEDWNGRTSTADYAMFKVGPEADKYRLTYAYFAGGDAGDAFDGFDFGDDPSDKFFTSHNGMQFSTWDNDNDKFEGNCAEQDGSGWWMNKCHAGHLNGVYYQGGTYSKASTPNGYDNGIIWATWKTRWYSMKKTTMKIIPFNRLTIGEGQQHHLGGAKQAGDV
Experiment: In vitro probe depletion: incorporation of rhodamine-labelled probes into human plasma thrombi (OD570 of supernatant)
Format: binding
Settings: mean
Method: Human blood was collected from healthy volunteers by venipuncture using a vacutainer tube containing trisodium citrate after signing informed consent (Helsinki declaration). […] At the indicated time points, the OD570 of the supernatant was measured. Mouse blood was collected through a tail vein puncture, and plasma from 6 mice was pooled. Human and mouse thrombi were allowed to form as described above and subsequently incubated with 100 μ L or 16 ng/ μ L ^111 In-A16 or ^111 In-control-A16. After 30, 60 and 180 min, the thrombi were washed twice with 1 mL PBS, and the amount of tracer uptake in the thrombi was calculated using gamma counting (Wallac Wizard, Turku, Finland). Data were expressed as the percentage of tracer uptake in the thrombi to the total amount of tracer added.
LisB-A16 was compared with bi- α 2-AP-CA. Human plasma was allowed to clot for 90 min at 37 °C, after which a 3 μ M probe was added. The decrease in probe left in the solution was measured by colourimetry and represented probe incorporation into the human thrombi (Figure 2A). […]
Figure 2 In vitro probe depletion. […] OD (570 nm) in solution was measured after 1, 2, 3 and 4 h as a measure of probe incorporation in thrombi. […]
OD (570 nm) in soluti on was measured after 1, 2, 3 and 4 hours , as a measure of probe […]

absorption at 570 nm of probe left in solution (probe incorporation into human thrombi) (3 μM probe added to human plasma thrombi formed 90 min at 37 °C (14 mM CaCl2, 0.6 nM TF), OD570 of supernatant measured after 1, 2, 3 and 4 h, n = 4, lower = more incorporation): 53% | remaining probe in solution (15 μM probe added to human plasma thrombi formed 90 min at 37 °C, OD570 of supernatant after 1, 2, 3 and 4 h, n = 4 (Figure S2)): 61%
Substance: Ac-GNQEQVSPLTLLK1-K(LisB)K-NH 2 [LisB-A16, red fluorescent A16 probe conjugated with Lissamine rhodamine-B]
